From article PMC6449294, “SNAPshots of the MCHR1: a Comparison Between the PET-Tracers [^18F]FE@SNAP and [^11C]SNAP-7941” (Molecular Imaging and Biology, 2018)

Experiments:
[1] = parameters: method as in earlier work; settings: ultrafiltration, human pooled plasma; ref 30 and 34 (table), 32 and 36; cited from earlier work
P-gp/BCRP = assay: Small animal PET of rat brain, vehicle vs pretreatment with P-gp/BCRP inhibitor TQD; type: in vivo; settings: for increase of brain uptake in TQD blocking group vs vehicle: rats, TQD 15 mg/kg 60 min before radiotracer, PET
Protocol: Ten-week-old male rats (412 ± 58 g, Sprague-Dawley, HIM:OFA, n = 30) and 12-week-old male mice (24 ± 6 g, BALB/cAnNRj, n = 7) were purchased from the Division of Laboratory Animal Science and Genetics, Himberg, Austria. Animals were kept under conventional housing conditions (22 ± 1 °C; 40–70 % humidity) with food and water supply ad libitum and 12-h day/night cycle. All animals were treated according to the European Union rules on animal care and respective animal experiments were approved by the Austrian Ministry of Sciences, Research and Economy (BMWFW-66.009/0029-WF/V/3b/20159). For in vivo imaging, animals were anesthetized using 1.5–2 % isoflurane mixed with oxygen (1.5–2 l/min) to avoid movement during the examination. Anesthesia as well as vital parameters were monitored during the time interval of PET acquisition. Radioligands and non-labeled compounds were administered intravenously via the lateral tail vein.
Anesthetized rats and mice were immobilized in a multimodal animal carrier unit (MACU; medres®—medical research GmbH, Cologne, Germany). The body temperature was preserved at 37 °C throughout the whole experiment. Rats received either [^11C]SNAP-7941 or [^18F]FE@SNAP, followed by an injection of (±)-SNAP-7941 (15-mg/kg body weight; displacement study; n = 4 for each radiotracer) or the respective solvent serving as the vehicle (baseline condition; n = 4 for each radiotracer). The MCHR1 antagonist, (±)-SNAP-7941, and the vehicle were administered either 15 ([^11C]SNAP-7941) or 20 min ([^18F]FE@SNAP) after the radiotracer application via the lateral tail vein. To investigate a potential binding to the P-glycoprotein (P-gp) and/or breast cancer resistance protein (BCRP) brain efflux transporter system, rats as well as mice were pretreated either with the P-gp/BCRP inhibitor TQD (15 mg/kg body weight; P-gp/BCRP inhibition group; rats: n = 4 for each radiotracer; mice: n = 4 for [^18F]FE@SNAP) or the respective solvent (baseline condition; rats: n = 3 for each radiotracer; mice: n = 3 for [^18F]FE@SNAP)). […]

[2] = molecular target: T1, human serum albumin (HSA) (Homo sapiens, UniProt P02768); assay: Plasma protein binding using bioaffinity chromatography (CHIRALPAK HSA); type: in vitro ADME; settings: human; bioaffinity chromatography on HSA stationary phase; read-out: Plasma protein binding (%PPB) / Binding to human serum albumin (converted)
T1 construct: purchased Daicel Chemical Industries CHIRALPAK HSA, column-batch H13L-2405
Protocol: The binding of (±)-SNAP-7941 and FE@SNAP to human serum albumin (HSA) was examined by bioaffinity chromatography according to a previously published manuscript. In short, the analytes were diluted in 2-propanol and ammonium acetate buffer (0.5 mg/ml) and injected on the CHIRALPAK®HSA stationary phase (50 × 3 mm, 5 μm pore size, column-batch: H13L-2405, Daicel Chemical Industries, West Chester, PA, USA). Prior the experiments, the column was calibrated with reference standards, and the resulting regression equation was used to convert the logarithmic capacity factors (log(k′)) to the percent of plasma protein binding (%PPB). The calibration curves, as well as the experiments, were performed by triplicate injections and at least three times.

T1 sequence (P02768 25-609): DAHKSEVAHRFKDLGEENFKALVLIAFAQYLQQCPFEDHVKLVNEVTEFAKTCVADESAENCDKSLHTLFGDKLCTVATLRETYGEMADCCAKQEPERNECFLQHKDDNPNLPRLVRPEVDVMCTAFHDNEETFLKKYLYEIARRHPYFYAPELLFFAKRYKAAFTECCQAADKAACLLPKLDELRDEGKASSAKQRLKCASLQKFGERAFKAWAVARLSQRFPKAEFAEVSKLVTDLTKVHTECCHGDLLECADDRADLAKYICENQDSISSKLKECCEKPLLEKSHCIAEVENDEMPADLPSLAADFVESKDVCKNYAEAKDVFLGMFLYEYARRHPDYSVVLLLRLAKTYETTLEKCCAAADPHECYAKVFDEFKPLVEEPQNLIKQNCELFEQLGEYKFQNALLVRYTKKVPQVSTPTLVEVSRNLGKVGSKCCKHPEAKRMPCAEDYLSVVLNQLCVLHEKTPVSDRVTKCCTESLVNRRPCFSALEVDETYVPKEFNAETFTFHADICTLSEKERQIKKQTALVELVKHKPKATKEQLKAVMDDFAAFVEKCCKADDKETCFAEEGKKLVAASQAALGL

| SMILES | Plasma free fraction (human) [1] [%] | increase of brain uptake in TQD blocking group vs vehicle (P-gp/BCRP) [times] | fraction unbound at 0.5 mg/ml [2] | P-gp/BCRP substrate status (P-gp/BCRP; rat brain PET after TQD pretreatment, result in words) |
| --- | --- | --- | --- | --- |
| COCC1=C(C(=O)OCC[18F])C(c2ccc(F)c(F)c2)N(C(=O)NCCCN2CCC(c3cccc(NC(C)=O)c3)CC2)C(=O)N1 (stereo not shown) [[^18F]FE@SNAP] | 12.6 ± 0.2 | 2.45 | 0.23 | – |
| COCC1=C(C(=O)O[11CH3])C(c2ccc(F)c(F)c2)N(C(=O)NCCCN2CCC(c3cccc(NC(C)=O)c3)CC2)C(=O)N1 (stereo not shown) [[^11C]SNAP-7941] | 20.96 ± 1 | 3.04 | 0.2 | P-gp/BCRP substrate |
